Assays:
APRY yeast = APRY yeast challenge in YM broth with equal molar salts; type: cell-based, Zygosaccharomyces bailii and/or Zygosaccharomyces rouxii
Protocol: • 1. The growth media of the Bidlas et al. reference was used (YM broth and stock pH (6.0). (Growth media—YMB, Sabourda, PDB • 2. Three salts (NaCl, KCl, NH4Cl) were added in a increasing level. […] The detailed salt amounts are shown in the Table 7 below. • 3. The target pH for all compositions was 5.5. • 4. The effects on APRY Yeast, instead of pathogens as in Bidlas et al. were studied. • 5. Inhibition was measured by CFUs (colony forming units) • 6. Dramatic increases in APRY yeast levels are observed after more than about two days.

[Cl-].[Na+] [NaCl, sodium chloride]
APRY yeast level in broth (APRY yeast; 0.51 N salt, day 0): 13,100 CFUs
APRY yeast level in broth (APRY yeast; 0.51 N salt, day 1): 440,000 CFUs
APRY yeast level in broth (APRY yeast; 0.51 N salt, day ½): 4,300 CFUs
APRY yeast level in broth (APRY yeast; 1.03 N salt, day 0): 10,000 CFUs
APRY yeast level in broth (APRY yeast; 1.03 N salt, day 1): 3,200 CFUs
APRY yeast level in broth (APRY yeast; 1.03 N salt, day 1½): 7,000 CFUs
APRY yeast level in broth (APRY yeast; 1.03 N salt, day 2): 29,000 CFUs
APRY yeast level in broth (APRY yeast; 1.03 N salt, day ½): 6,900 CFUs
APRY yeast level in broth (APRY yeast; 1.54 N salt, day 0): 13,200 CFUs
APRY yeast level in broth (APRY yeast; 1.54 N salt, day 1): 2,300 CFUs
APRY yeast level in broth (APRY yeast; 1.54 N salt, day 1½): 8,000 CFUs
APRY yeast level in broth (APRY yeast; 1.54 N salt, day 2): 3,900 CFUs
APRY yeast level in broth (APRY yeast; 1.54 N salt, day 5): 2,740 CFUs
APRY yeast level in broth (APRY yeast; 1.54 N salt, day 6): 1,840 CFUs
APRY yeast level in broth (APRY yeast; 1.54 N salt, day 8): 3,600 CFUs
APRY yeast level in broth (APRY yeast; 1.54 N salt, day 11): 3,300 CFUs
APRY yeast level in broth (APRY yeast; 1.54 N salt, day 13): 2,900 CFUs
APRY yeast level in broth (APRY yeast; 1.54 N salt, day 14): 3,500 CFUs
APRY yeast level in broth (APRY yeast; 1.54 N salt, day ½): 3,800 CFUs
APRY yeast level in broth (APRY yeast; 2.05 N salt, day 0): 9,800 CFUs
APRY yeast level in broth (APRY yeast; 2.05 N salt, day 1): 2,700 CFUs
APRY yeast level in broth (APRY yeast; 2.05 N salt, day 1½): 7,000 CFUs
APRY yeast level in broth (APRY yeast; 2.05 N salt, day 2): 4,500 CFUs
APRY yeast level in broth (APRY yeast; 2.05 N salt, day 5): 1,730 CFUs
APRY yeast level in broth (APRY yeast; 2.05 N salt, day 6): 2,110 CFUs
APRY yeast level in broth (APRY yeast; 2.05 N salt, day 8): 1,600 CFUs
APRY yeast level in broth (APRY yeast; 2.05 N salt, day 11): 700 CFUs
APRY yeast level in broth (APRY yeast; 2.05 N salt, day 13): 700 CFUs
APRY yeast level in broth (APRY yeast; 2.05 N salt, day 14): 800 CFUs
APRY yeast level in broth (APRY yeast; 2.05 N salt, day ½): 5,100 CFUs

[Ca+2].[Cl-].[Cl-] [calcium chloride]
Z. bailii outgrowth (Z. bailii): enhance Z. bailii outgrowth

[Cl-].[Cl-].[Mg+2] [magnesium chloride]
Z. bailii outgrowth (Z. bailii): enhance Z. bailii outgrowth
